Experiment: Analysis of the bisabolol content on the skin (GC/MS of alcohol-pad extract) after transfer from laundered clothing article
Type: in vivo, human
Description: Protocol: • One cotton sock from the laundry described previously was inverted to expose the inner surface. • Left arm of a subject was washed with unfragranced soap followed by 95% alcohol wipe to remove any foreign material and soluble oils. • Rubbed previously laundered cotton sock with Symrelief onto subject's […]. Seven times on one side then 8 times on the other sock surface.
(§1) Protocol: • Applied 3 commercially available alcohol pads (which had been soaked in 95% ethanol) onto arm area. Allowed to dry completely. • The alcohol wipe pads were transferred into 1 oz glass jar and added 5 grams diethylether and allowed to extract for 2 hours. • Ether extract was concentrated to 100 μl under a nitrogen stream. • 2.5 μl was manually injected into a GC/MS equipt with a carbowax column and run with a splitless method. • Bisabolol peak was identified in the sample by the characteristic ions in the mass spectrum. • The control arm was treated in the same manner with no identified bisabolol.
Protocol: • One of a pair of cotton/poly socks from the laundry described previously was given to a test subject removed and blind codded. The sock was paired with a blind codded sock that was un-laundered. • The ventral surface of the subjects ankles were washed with unfragranced soap followed by 95% alcohol wipe to remove any foreign material and soluble oils. • The pair of socks were worn by a test subject for 8 hours in a normal use setting.
as §1, with “•” for “Protocol: •”, “12” for “3”, “bisabolol. […]” for “bisabolol.”

Bisabolol peak in skin wipe extract (GC/MS, characteristic ions) (laundered cotton sock (softener with 5% Symcap G1 Bisabolol slurry) rubbed onto subject's arm, 7 and 8 times, 3 alcohol pads): identified | Bisabolol peak in skin wipe extract (GC/MS, characteristic ions) (laundered cotton/poly sock worn for 8 hours in normal use, 12 alcohol pads): identified | Bisabolol peak in skin wipe extract (GC/MS, characteristic ions) (laundered thermal shirt worn for 8 hours in normal use, upper arms, 12 alcohol pads): identified
Compound: CC(C)=CCC[C@](C)(O)C1CC=C(C)CC1 (stereo partly drawn) [Bisabolol, bisabolol]
